Results as given in US20260034236A1, “NEW DRUG COMPLEX” (KOWA COMPANY, LTD., priority 2022, published 2026).

Columns and labels:
[1] = test system: mouse colon cancer cell line C26; assay: Drug efficacy test in C26 tumor-bearing nude mice; format: in vivo; details: after 14 days from administration; tail vein, 3 times every other day; 8 mg/kg (3.9 mg/kg in terms of Pt)
Protocol: A tumor-bearing model obtained by subcutaneously transplanting a mouse colon cancer cell line C26 (American Type Culture Collection) into a female nude mouse (BALB/c-nu/nu, 7 weeks old; Charles River Laboratories Japan, Inc.) was used for a drug efficacy test.
A mouse colon cancer cell line C26 subcultured in a CO2 incubator was suspended in a liquid medium (Dulbecco's Modified Eagle's Medium-high glucose, Sigma-Aldrich Co. LLC), and injected subcutaneously in the back of nude mice so that the number of cells per mouse was 1×10^6/100 μL. Thereafter, the nude mice were raised for about 1 week, and administration of a drug was started when the average value of the tumor volume had grown to about 30 mm^3. A DACHPt-encapsulating SCNP (DACHPt-encapsulating SCNP prepared using the copolymer of Example 70) was administered into the tail vein (3 times every other day), and the antitumor effect was evaluated based on the tumor volume (4 to 5 mice per 1 group). As a comparison, an oxaliplatin solution (Comparative Example 1) was used, and it was administered in the same manner. The dose of each preparation was 8 mg/kg (3.9 mg/kg in terms of Pt) as the maximum administrable dose for the oxaliplatin solution, and 3 mg/kg in terms of Pt for the DACHPt-encapsulating SCNP. […]

[2] = test system: CD20 antigen-negative human T-lymphoblastic leukemia-derived MOLT-4 cells; assay: Cytotoxic test (CellTiter-Glo), CD20 antigen-negative cells; format: cell-based; details: cultured 4 days, read-out: IC50(nmol/L) MOLT-4 (CD20 negative)
Protocol: (§1) CD20 antigen-positive human B-cell lymphoma-derived Raji cells or CD20 antigen-negative human T-lymphoblastic leukemia-derived MOLT-4 cells were adjusted to a cell concentration of 5.0×10^4 cells/mL with the RPMI1640 medium, and 50 μL each was added to the 96-well microplate for cell culture, then cultured overnight. On the next day, 50 μL of the evaluation specimen diluted with the RPMI medium was separately added to the microplate, and the cells were cultured for 4 days at 37° C. under 5% CO2. After the culturing, CellTiter-Glo™ Luminescent Cell Viability Assay (Promega Corporation) was added to the microplate, and the mixture was stirred and left to stand at room temperature for 10 minutes. The light emission amount was then measured with a plate reader (Molecular Devices, LLC.). The cell viability and IC50 value were calculated.

[3] = test system: CD20 antigen-positive human B-cell lymphoma-derived Raji cells; assay: Cytotoxic test (CellTiter-Glo), CD20 antigen-positive cells; format: cell-based; details: high expression of CD20, cultured 4 days, read-out: IC50(nmol/L) Raji (High expression of CD20)
Protocol: as §1

Row | Compound | T/C (ratio of the tumor volume of the drug administration group to that of the control group) [1] | IC50 [2] [nmol/L] | IC50 [3] [nmol/L]
1 | O=C1[O][Pt]2([NH][C@@H]3CCCC[C@H]3[NH]2)[O]C1=O [Comparative Example 1, oxaliplatin] | 1.1 | – | –
2 | rituximab [Comparative Example 4] | – | > 69 | > 69
